Consider two compounds from patent US12558345B2, “CHK1/2 inhibitors for use in the treatment of neuroblastomas and/or soft tissue sarcomas” (Eli Lilly and Company, priority 2015, dated 2026).

Common to all, as to assay type: in vivo, mouse
Experiment [1] has as its system HT-29 colon tumor xenograft. The experiment in a line: Human Tumor Xenograft Models, with gemcitabine: HT-29. As for the experimental part: The ability of CHK1 inhibitors to effect tumor killing can be determined in vivo using the Calu-6 lung and HT-29 colon tumor xenograft efficacy models. Calu-6 lung cancer cells (ATCC) are cultured in growth media (MEM w/ Earle's salts (Invitrogen) with L-glutamine (Gibco™) supplemented with 10% (v/v) heat inactivated FBS (Gibco™), 1×MEM non-essential amino acids (Gibco™), 1×sodium pyruvate (Gibco™)) and HT-29 colon cancer cells (ATCC) are cultured in growth media, (McCoy's 5A medium (Gibco™) supplemented with 10% FBS (Gibco™)) and expanded. Cells are harvested and washed twice with phosphate buffered saline and 5×10^6 cells (HT-29) or 1×10^6 cells (Calu-6) in growth media (without serum) are mixed with equal volume of BD Matrigel™ matrix (BD Bioscience, Franklin, NJ), then injected subcutaneously into the flank of nude mice (CD-1 nu/nu, from Charles River Labs, Wilmington, MA). At about day 16 after implant (150-200 mm^3), gemcitabine is formulated fresh in saline daily and administered to animals by intraperitoneal route at 60 mg/kg dose. […] Tumor response is determined by tumor volume measurement performed twice a week during the course of treatment. Tumor growth inhibition (TGI) is calculated as the percent reduction in mean tumor size of a compound treated group from the mean tumor size of the vehicle-treated control group.

The test system of experiment [2] is CTG-0241 OS patient-derived xenograft. The experiment in a line: Xenograft Tumor Model CTG-0241. The settings on record: comparator day 28, p-value 0.019. The method, then:
(§1) The efficacy of 5-(5-(2-(3-aminopropoxy)-6-methoxyphenyl)-1H-pyrazol-3-ylamino)pyrazine-2-carbonitrile methanesulfonic acid monohydrate is measurable in vivo in mouse models of neuroblastomas and human pediatric and adult sarcomas. 5-(5-(2-(3-Aminopropoxy)-6-methoxyphenyl)-1H-pyrazol-3-ylamino)pyrazine-2-carbonitrile methanesulfonic acid monohydrate (10 mg/kg) can be administered subcutaneously to nude mice bearing either cell-derived xenografts (CDX) or patient-derived xenografts (PDX) of human rhabdomyosarcoma, desmoplastic small round cell tumor (DSRCT), osteosarcoma, and Ewing's sarcoma using a 3 day on, 4 day off b.i.d. dosing schedule. Tumor volume and body weight can be measured two times per week. Tumor-specific parameters can be evaluated by immumohistochemistry. […]
(§2) For all “ST” models (encompassing RMS and LMS), patient-derived xenografts are established from viable human tumor tissue and are serially passaged in animals a limited number of times to maintain tumor heterogeneity. […] Tumor response is determined by tumor volume measurement performed twice per week during the course of treatment.

The subject of experiment [3] is CTG-0994 EWS patient-derived xenograft. The experiment in a line: Xenograft Tumor Model CTG-0994. The conditions noted are these: comparator day 25, p-value <0.001. As for the experimental part:
as §1, §2

In experiment [4] the test system is CTG-1116 RMS patient-derived xenograft. The experiment in a line: Xenograft Tumor Model CTG-1116. The conditions noted are these: comparator day 17, p-value <0.001. The method, then: as §1, §2
Experiment [5] deals with IMR-32 human NBM cancer cell xenograft. The experiment in a line: Xenograft Tumor Model IMR-32. The conditions noted are these: IMR-32, NBM, comparator day 66, p-value <0.001. The method, then: The following protocol can be used to measure reductions in tumor volume in response to an active pharmaceutical ingredient. Expand human NBM cancer cells SH-SY5Y (ATCC, #CRL-2226) in culture, harvest, and inject 5×10^6 cells in 200 μL of 1:1 solution of HBSS and Matrigel® subcutaneously into the right rear flank of female CD-1 nu/nu mice (20-24 g, Charles River Laboratories). Expand human NBM cancer cells KELLY (Sigma-#92110411) in culture, harvest, and inject 5×10^6 cells in 200 μL of 1:1 solution of HBSS and Matrigel® subcutaneously into the right rear flank of female CB-17 SCID mice (20-24 g, Charles River Laboratories). Expand human NBM cancer cells IMR-32 (ATCC, #CCL-127) in culture, harvest, and inject 5×10^6 cells in 200 μL of 1:1 solution of HBSS and Matrigel® subcutaneously into the right rear flank of female CB-17 SCID mice (20-24 g, Charles River Laboratories).
as §2

For experiment [6], the system named is SJCRH-30 human RMS cancer cell xenograft. The experiment in a line: Xenograft Tumor Model SJCRH-30. The method, then:
(§3) The efficacy of 5-(5-(2-(3-aminopropoxy)-6-methoxyphenyl)-1H-pyrazol-3-ylamino)pyrazine-2-carbonitrile methanesulfonic acid monohydrate is measurable in vivo in mouse models of neuroblastomas and human pediatric and adult sarcomas. 5-(5-(2-(3-Aminopropoxy)-6-methoxyphenyl)-1H-pyrazol-3-ylamino)pyrazine-2-carbonitrile methanesulfonic acid monohydrate (10 mg/kg) can be administered subcutaneously to nude mice bearing either cell-derived xenografts (CDX) or patient-derived xenografts (PDX) of human rhabdomyosarcoma, desmoplastic small round cell tumor (DSRCT), osteosarcoma, and Ewing's sarcoma using a 3 day on, 4 day off b.i.d. dosing schedule. Tumor volume and body weight can be measured two times per week. Tumor-specific parameters can be evaluated by immumohistochemistry.
Expand human RMS cancer cells SJCRH-30 (St. Jude Children's Research Hospital) in culture, harvest, and inject 5×10^6 cells in 200 μL of HBSS subcutaneously into the right rear flank of female athymic nude mice (20-22 g, Harlan Laboratories). Expand human rhabdomyosarcoma cancer cells RD (ATCC, #CCL-136) in culture, harvest, and inject, 5×10^6 cells in 200 μL of HBSS subcutaneously into the right rear flank of female athymic nude mice (20-22 g, Harlan Laboratories).
(§4) For all “ST” models (encompassing RMS and LMS), patient-derived xenografts are established from viable human tumor tissue and are serially passaged in animals a limited number of times to maintain tumor heterogeneity. In subcutaneous models, athymic nude mice (Crl:NU(NCr)-Foxn1nu) or CB-17 SCID mice (CRL-CB17/Icr-Prkdcscid/IcrIcoCrl) are injected or implanted unilaterally into the flank with tumor fragments harvested from host animals, each implanted from a specific passage lot. For all studies, measure tumor growth and body weight twice per week beginning on the seventh day after implantation. When tumor size reaches 150-300 mm^3, randomize animals and group into groups of 4-7 animals. Prepare test compound in an appropriate vehicle (e.g. vehicle can be 20% Captisol® in sterile water) and administer subcutaneously for three consecutive days followed by a four day dosing holiday and repeat for a minimum of four weeks. Tumor response is determined by tumor volume measurement performed twice per week during the course of treatment.

Another experiment concerns DSRCT xenograft models. The experiment in a line: Sarcoma xenograft models by tumor subtype: DSRCT. The method, then:
as §3
For all “CTG” models (encompassing human RMS, DSRCT, EWS, OS and LMS patient-derived xenograft models), female NCr nude spontaneous mutant mice (5-8 weeks old, Taconic) are implanted unilaterally in the flank region with tumor fragments harvested from donor animals, each implanted from a specific passage lot.
as §4

Structures are written as SMILES. Where a name gives a salt, the structure may show the parent alone.

As to `COc1cccc(OCCCN)c1-c1cc(Nc2cnc(C#N)cn2)n[nH]1` [Example 2, 5-(5-(2-(3-Aminopropoxy)-6-methoxyphenyl)-1H-pyrazol-3-ylamino)pyrazine-2-carbonitrile dihydrogen chloride salt], the “increase in tumor growth inhibition over gemcitabine alone” value in experiment [1] (HT-29, combination with gemcitabine) is listed as “up to a six-fold increase”. For the same compound, the anti-tumor activity entry in experiment [1] (HT-29, dosed alone and in combination with gemcitabine 60 mg/kg ip, compound iv +24 hours, Q3Dx4) was “excellent dose dependent anti-tumor activity”.

Turning to `COc1cccc(OCCCN)c1-c1cc(Nc2cnc(C#N)cn2)n[nH]1` [Example 5, 5-(5-(2-(3-Aminopropoxy)-6-methoxyphenyl)-1H-pyrazol-3-ylamino)pyrazine-2-carbonitrile methanesulfonic acid monohydrate], the “% T/C” value in experiment [2] worked out at 48%; in experiment [4], 8%. Besides, the “% Regression” value in experiment [3] is recorded as −79%; in experiment [5], −72%; in experiment [6] (SJCRH-30, RMS, comparator day 38, p-value <0.001), −78%. The “course of the regression upon withdrawal of the drug” value in experiment [6] (SJCRH-30 aRMS model) is “immediately reversed”. In experiment [6] (SJCRH-30 aRMS model), the “tumor response during treatment” value is “complete regression”. For the same compound, in experiment [6] (SJCRH-30 aRMS model, 10 mg/kg), the “response of subsequent regrowth to further treatment” value was “resistant to further treatment”. Moreover, in the experiment on DSRCT xenograft models (DSRCT, age of patients 20 years), the “Result of Treatment: Complete Response (models)” value was 1/1 Complete. Besides, the “tumor response when re-challenged” value in the experiment with DSRCT xenograft models (PDX model of DSRCT, after regrowth) is on record as “tumor regression”. Moreover, the “time post-treatment at which tumor growth is observed” value in the experiment with DSRCT xenograft models (PDX model of DSRCT, upon cessation of therapy) is on record as 50 days. Moreover, the “tumor response in a PDX model of DSRCT” value in the experiment on DSRCT xenograft models (following four dosing cycles) was “complete regression”.
